# Test results as given in paper PMC11053687, “Synthesis and Pharmacological Characterization of New Photocaged Agonists for Histamine H3 and H4 Receptors” (Pharmaceuticals, 2024).
# Read-outs that look alike come from different tables or passages of the source.
# Legend:
# H3R [1] = target: T1, H3R (Homo sapiens, UniProt Q9Y5N1); experiment: cAMP inhibition by FRET-EPAC biosensor in HEK293-EPAC cells stably expressing H3R; format: cell-based; set-up: expressed in transfected cells; host or cells: HEK293 cells stably expressing EPAC-cAMP FRET biosensor and H3R; settings: for EC50: inhibition of cAMP induced by 10 nM isoprenaline, FRET after 20 min
# T1 sequence (Q9Y5N1 whole entry): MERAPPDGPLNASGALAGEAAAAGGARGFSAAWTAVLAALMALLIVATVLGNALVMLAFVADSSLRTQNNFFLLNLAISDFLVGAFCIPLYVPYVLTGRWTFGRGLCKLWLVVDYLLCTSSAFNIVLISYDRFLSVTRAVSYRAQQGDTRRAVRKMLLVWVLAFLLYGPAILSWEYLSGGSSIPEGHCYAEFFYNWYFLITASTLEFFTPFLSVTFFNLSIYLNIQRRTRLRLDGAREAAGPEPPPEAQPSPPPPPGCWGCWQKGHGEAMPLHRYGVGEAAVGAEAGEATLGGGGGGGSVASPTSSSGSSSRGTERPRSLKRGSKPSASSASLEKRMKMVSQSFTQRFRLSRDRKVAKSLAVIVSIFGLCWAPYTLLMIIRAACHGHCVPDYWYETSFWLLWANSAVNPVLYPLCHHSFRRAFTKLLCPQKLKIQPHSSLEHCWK
# Procedure: H3R primarily couples to Gαi protein, which upon activation causes a decrease in intracellular cAMP levels via the inhibition of adenylate cyclase. Therefore, the HEK-EPAC cells were pre-treated with 10 nM of the beta2 adrenergic receptor (β2AR) agonist isoprenaline before H3R stimulation to enhance the basal intracellular cAMP levels via β2AR-Gαs activation. As anticipated, the H3R selective agonist immepip reduced the isoprenaline-induced cAMP accumulation, as detected by an increased FRET (fluorescence resonance energy transfer) signal in the EPAC (exchange protein directly activated by cAMP) biosensor (Figure 3A).
# HEK293T cells (ATTC, CRL-1573) were cultured in DMEM supplemented with 10% FBS and 1% P/S in a humidified incubator at 37 °C with 5% CO2. The HEK293 cell line stably expressing an EPAC-cAMP FRET biosensor was kindly provided by Dr. M. Zimmermann (Interax Biotech, Basal, Switzerland). HEK293-EPAC cells stably co-expressing the H3R (GenBank accession number NM_007232.3) were generated as previously described.
# EPAC-H3R cells were seeded into black 96-well plates with 50,000 cells per well one day before the experiment. The next day, the culture medium was replaced with HBSS. Subsequently, 10 nM isoprenaline (dissolved in HBSS supplemented with 20 mM thiourea) was added for 10 min incubation to elevate basal cAMP levels. Fluorescence resonance energy transfer (FRET) measurements were recorded by CLARIOstar plate reader in real-time or at 20 min after ligand stimulation.
# (§1) All data are shown as mean ± S.D. from three individual experiments performed in triplicate. Figures were generated and data analyzed by Prism 9. In radioligand binding assays, the competition binding curves were fitted by ‘one-site—Fit Ki’ to obtain the equilibrium dissociation constants of unlabeled ligands (Ki) by Cheng-Prusoff equation [46]. In FRET-EPAC assays, the ligand-induced cAMP inhibition was quantified by FRET ratios, dividing the FRET signal at 530 nm by the signal at 480 nm. The response was represented as ΔFRET ratios, obtained by the analysis of ‘Fractional difference: (Value—Baseline)/Baseline’. Then the concentration–response curves were fitted using the model: ‘log(agonist) vs. response (three parameters)’ to obtain potency (pEC50).
# Figure 3 Optical modulation of VUF25657-induced cAMP inhibition in EPAC-H3R cells. Real time modulation of isoprenaline-induced cAMP acumination in HEK-EPAC cells by 1 μM immepip (A). Modulation of isoprenaline-induced cAMP acumination in HEK-EPAC cells by increasing concentrations of VUF25657 (B). HEK-EPAC cells stably expressing H3R were pre-stimulated with 10 nM isoprenaline for 10 min before ligand addition. The FRET signal of the EPAC-sensor was measured after 20 min treatment of indicated ligands. VUF25657 was either kept in dark or pre-irradiated at 560 nm for 3 min to release the BODIPY cage. Data are mean ± S.D. from four independent experiments performed, each in triplicate.
# H3R [2] = target: T1, H3R; experiment: [3H]NAMH competition binding, membranes of HEK293T cells transiently expressing H3R; set-up: expressed in transfected cells; host or cells: HEK293T (transient, PEI); membranes
# Procedure: (§2) Both GPCRs were transiently expressed in HEK293T cells.
# (§3) Membranes were collected from HEK293T cells transiently transfected with H3R or H4R by PEI method. In brief, 2 million HEK293T cells were seeded into a 10 cm dish one day before transfection. The next day, the cells were transfected with 2.5 μg cDNA encoding H3R (GenBank accession number AF140538) or H4R (GenBank accession number AY136745) supplemented with 2.5 μg empty pcDEF3 [45] plasmid using 20 μg PEI. Two days after transfection, the transfected HEK293T cells were detached using ice-cold PBS, and the membrane pellets were subsequently collected by centrifuging at 1932× g at 4 °C for 10 min.
# For competition binding assays, the tested compounds were pre-irradiated to reach the uncaged state. In brief, 0.3 mM stock of photocaged ligand (dissolved in DMSO) was divided into two samples, one of which was subsequently diluted in Tris-HCl buffer (50 mM, pH 7.4) to 3 μM and then irradiated by 560 nm to reach the uncaged state, as confirmed by LC–MS, and the other sample was kept in dark to retain its caged state. The prepared membrane pellets expressing H3R or H4R were resuspended in Tris-HCl buffer (50 mM, pH 7.4) and disrupted by 5 s sonication to make membrane suspension. Next, all the following handling was performed under near-infrared light. […] Following one hour of incubation with continuous shaking at 225 rpm at 25 °C, the reaction was terminated by transferring the mixture to GF/C filter plates that were pre-soaked with a solution containing 0.5% PEI and washed with cold Tris-HCl buffer. After drying for 30 min at 55 °C, the radioactivity remaining on the filters was quantified using a Microbeta Wallac Trilux scintillation counter, following the addition of scintillation liquid with a two-hour delay.
# as §1
# Figure 2 Displacement binding curves of parent, caged, and uncaged ligands for H3R (A) and H4R (B). […] Caged ligands were either kept in dark or pre-irradiated at 560 nm for 3 min for VUF25657 and 5 min for VUF25678 to achieve the uncaged state. Data shown are mean ± S.D. from three or four independent experiments, each performed in triplicate.
# [3] = Nephelometry (aqueous solubility); format: physicochemical; settings: 50 mM Tris-HCl buffer with 1% DMSO, pH 7.4, aqueous buffer, kinetic from dmso stock, in the dark, read-out: aqueous solubility (limit)
# human H4R = target: T2, human H4R (Homo sapiens, UniProt Q9H3N8); experiment: [3H]histamine competition binding, membranes of HEK293T cells transiently expressing H4R
# T2 construct: expressed in transfected cells; host or cells: HEK293T (transient, PEI); membranes
# T2 sequence (Q9H3N8 whole entry): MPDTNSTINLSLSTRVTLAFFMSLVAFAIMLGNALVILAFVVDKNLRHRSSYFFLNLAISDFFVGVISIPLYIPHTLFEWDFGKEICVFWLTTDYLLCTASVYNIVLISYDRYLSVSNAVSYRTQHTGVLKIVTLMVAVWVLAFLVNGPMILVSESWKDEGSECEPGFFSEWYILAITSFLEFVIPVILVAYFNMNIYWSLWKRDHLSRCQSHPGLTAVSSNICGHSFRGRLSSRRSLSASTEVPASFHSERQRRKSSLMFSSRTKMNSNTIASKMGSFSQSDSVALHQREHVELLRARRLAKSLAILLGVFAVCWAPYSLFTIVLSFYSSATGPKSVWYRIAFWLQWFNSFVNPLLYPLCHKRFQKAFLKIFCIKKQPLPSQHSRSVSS
# Procedure: as §2, §3
# For competition binding assays, the tested compounds were pre-irradiated to reach the uncaged state. […] After drying for 30 min at 55 °C, the radioactivity remaining on the filters was quantified using a Microbeta Wallac Trilux scintillation counter, following the addition of scintillation liquid with a two-hour delay.
# All data are shown as mean ± S.D. from three individual experiments performed in triplicate. Figures were generated and data analyzed by Prism 9. […] In FRET-EPAC assays, the ligand-induced cAMP inhibition was quantified by FRET ratios, dividing the FRET signal at 530 nm by the signal at 480 nm. […]
# [4] = UV-Vis absorption in Tris-HCl buffer; format: physicochemical; settings: Tris-HCl buffer (50 mM, pH 7.4)
# Procedure: Next, the photochemical properties of the caged VUF25657 and VUF25678 were investigated. […] Based on the photochemical stability results in Figure S2, photo characterizations of VUF25657 and VUF25678 were performed under red LED light. Due to the low absorbance of immepip and 4-methylhistamine at 230 and 254 nm, a quantitative analysis method based on mass (MS) detection was employed. First, calibration curves of monitored compounds with the corresponding reference compound of the same molecular weight were built (Figure S3). Then, after illumination, the reference compounds were added to LCMS samples as internal standards. Based on the MS signal areas, the concentrations of caged compounds and parent compounds could be monitored. In Tris-HCl buffer (50 mM, pH 7.4), the absorption maximum (λmax) was determined to be 551 nm for VUF25657 (Figure 1A) and 546 nm for VUF25678 (Figure S4A). […] After 180 s of illumination, the concentration of immepip reached 0.92 μM, amounting to 29% uncaging efficiency. […]
# Figure 1 Photo-uncaging followed by UV–Vis (ultraviolet-visible) and LC–MS analysis. (A) VUF25657 (3.2 μM) was illuminated under 560 nm in Tris-HCl buffer (50 mM, pH 7.4)/1% DMSO at room temperature and a UV–Vis spectrum was measured at intervals. […]
# measured at intervals; (B) […] (3.2 μM) was illuminated under green LED light in Tris-HCl buffer (50 […]
# [5] = Photo-uncaging at 560 nm followed by LC-MS with internal standard; format: physicochemical; settings: VUF25657 3.2 μM in Tris-HCl buffer
# Procedure: Next, the photochemical properties of the caged VUF25657 and VUF25678 were investigated. […] Based on the photochemical stability results in Figure S2, photo characterizations of VUF25657 and VUF25678 were performed under red LED light. Due to the low absorbance of immepip and 4-methylhistamine at 230 and 254 nm, a quantitative analysis method based on mass (MS) detection was employed. First, calibration curves of monitored compounds with the corresponding reference compound of the same molecular weight were built (Figure S3). Then, after illumination, the reference compounds were added to LCMS samples as internal standards. Based on the MS signal areas, the concentrations of caged compounds and parent compounds could be monitored. In Tris-HCl buffer (50 mM, pH 7.4), the absorption maximum (λmax) was determined to be 551 nm for VUF25657 (Figure 1A) and 546 nm for VUF25678 (Figure S4A). […] After 180 s of illumination, the concentration of immepip reached 0.92 μM, amounting to 29% uncaging efficiency. Further illumination led to a decreased immepip concentration (for example, 0.53 μM at 20 min). One potential explanation for this could be the reaction of immepip with side products or intermediates formed during the uncaging process.
# Figure 1 Photo-uncaging followed by UV–Vis (ultraviolet-visible) and LC–MS analysis. (A) VUF25657 (3.2 μM) was illuminated under 560 nm in Tris-HCl buffer (50 mM, pH 7.4)/1% DMSO at room temperature and a UV–Vis spectrum was measured at intervals. Only the 350–750 nm region is shown; (B) VUF25657 (3.2 μM) was illuminated under green LED light in Tris-HCl buffer (50 mM, pH 7.4)/1% DMSO at 37 °C and LC–MS analysis was performed at different time points using an internal standard.
# H3R [6] = target: T1, H3R; set-up: expressed in transfected cells; host or cells: HEK293 cells stably expressing EPAC-cAMP FRET biosensor and H3R; method as in PMID 30249614; settings: saturation binding of the radioligand to H3R; cited from earlier work
# [7] = after 180 s of illumination at 560 nm
compound,measurement,setting,value
"c1nc(CC2CCNCC2)c[nH]1 [immepip, 4-((1H-imidazol-4-yl)methyl)piperidine, reference compound]",EC50,"H3R [1]; pEC50 +560 nm, pre-irradiated at 560 nm for 3 min",0.0631 nM
same,EC50,"H3R [1]; pEC50 In Dark, kept in dark",0.0316 nM
same,pKi In Dark,"H3R [2]; H3R, displacement of 2 nM [3H]NAMH, compound kept in dark (caged state)",9.4 ± 0.2 (4)
same,pKi +560 nm,"H3R [2]; H3R, displacement of 2 nM [3H]NAMH, pre-irradiated at 560 nm (3 min for VUF25657)",9.4 ± 0.3 (4)
"CCC1=C(C)C2=C(COC(=O)NCCc3nc[nH]c3C)c3c(C)c(CC)c(C)n3[B-](F)(F)[N+]2=C1C [VUF25678, (2,8-Diethyl-5,5-difluoro-1,3,7,9-tetramethyl-5H-4λ^4,5λ^4-dipyrrolo [1,2-c:2′,1′-f][1,3,2]diazaborinin-10-yl)methyl (2-(5-methyl-1H-imidazol-4-yl)ethyl)carbamate]",solubility,[3],3.2 µM
same,melting point,,108.8 to 116.3 °C
same,reduction in affinity for H4R on caging,human H4R; caged compound vs parent 4-methylhistamine,10–100 fold
same,absorption maximum (λmax),[4],546 nm
"CCC1=C(C)C2=C(COC(=O)N3CCC(Cc4c[nH]cn4)CC3)c3c(C)c(CC)c(C)n3[B-](F)(F)[N+]2=C1C [VUF25657, (2,8-Diethyl-5,5-difluoro-1,3,7,9-tetramethyl-5H-4λ^4,5λ^4-dipyrrolo [1,2-c:2′,1′-f][1,3,2]diazaborinin-10-yl)methyl 4-((1H-imidazol-4-yl)methyl)piperidine-1-carboxylate]",concentration of immepip released,[5]; [7],0.92 µM
same,uncaging efficiency,[5]; [7],29%
same,concentration of immepip released,"[5]; illumination at 560 nm, at 20 min",0.53 µM
same,solubility,[3],3.2 µM
same,melting point,,148.7 to 150.7 °C
same,absorption maximum (λmax),[4],551 nm
same,decrease in potency of cAMP inhibition compared with immepip,"H3R [1]; caged state (dark) vs parent immepip, listed as 5 (VUF25657)",> 100 fold
same,EC50,"H3R [1]; kept in dark, read-out: pEC50 In Dark (converted)",10 nM
same,higher potency of cAMP inhibition after irradiation than caged state,H3R [1]; irradiation at 560 nm vs dark,20 fold
same,Ki,"H3R [2]; H3R, displacement of 2 nM [3H]NAMH, compound kept in dark (caged state), read-out: pKi In Dark (converted)",50.1 nM
same,decrease in affinity for H3R compared with immepip,H3R [2]; caged state (dark) vs parent immepip,125 fold
same,increase in H3R affinity after illumination in comparison to caged state,H3R [2]; illumination at 560 nm vs dark,12 fold
"CNCCc1cnc[nH]1 [[^3H]NAMH, N-α-[methyl-^3H] histamine]",Kd,H3R [6],1.37 nM
"Cc1[nH]cnc1CCN [4-methylhistamine, 2-(5-methyl-1H-imidazol-4-yl)ethan-1-amine, reference compound]",pKi +560 nm,"human H4R; H4R, displacement of 4 nM [3H]histamine, pre-irradiated at 560 nm (5 min for VUF25678)",7.2 ± 0.1 (3)
